From patent US20240325402A1, “MOMELOTINIB COMBINATION THERAPY” (GlaxoSmithKline LLC, priority 2021, published 2024)
Where a name gives a salt, the structure may show the parent alone. Read-outs that look alike come from different tables or passages of the source.

Test system: NF-kB reporter activity
Test: NF-kB luciferase reporter assay (TNFa-stimulated NF-kB Reporter-HEK293 cells)
Assay type: cell-based, human
Details: for inhibition at 10 µM / IC50 / Percent Inhibition at 10 uM: NF-kB Reporter-HEK293 cells; for inhibition at 10 µM / Percent Inhibition at 10 uM: compound at 10 uM; for inhibition at 10 µM: read-out: Percent Inhibition at 10 uM
Experimental: NF-kB Reporter-HEK293 cell line (BPS Bioscience #60650); MEM medium (Hyclone #SH30024.01); Fetal bovine serum (Life Technologies #10082147); Non-essential amino acid (Corning 25-025-C1); Na-pyruvate (Hyclone #SH30239.01); Pen-strep (Hyclone #SV30010); Hygromycin B (Invitrogen/Thermo-Fisher #10687010); IKK-16 dihydrochloride—NF-kB inhibitor (Sigma SML1138); TNFa (R&D Systems 210-TA); ONE-Step luciferase assay system (BPS Bioscience #60690).
Cell culture. Cells were cultured in MEM medium with 10% FBS, 1% non-essential amino acid, 1 mM Na-pyruvate, 1% Pen-strep, and 50 μg/mL Hygromycin B.
To perform the NF-kB luciferase reporter assay, NF-kB Reporter—HEK293 cells were seeded at 30,000 cells per well into white clear-bottom 96-well microplate in 60 μL of assay medium (growth medium without Hygromycin B). Cells were incubated at 37° C. and 5% CO2 for 5 hours to allow them attach. A serial dilution of compounds was prepared in assay medium without Hygromycin B. Thirty μL of diluted compounds was added to the treatment wells at the end of the day. Thirty μL of assay medium with the same concentration of DMSO without compound was added to the control wells. One hundred μL of assay medium with DMSO was added to cell-free control wells for determining background luminescence. Cells were incubated at 37° C. and 5% CO2 overnight.
The next day ten μL of diluted human TNFa in assay medium was added to wells (final [TNFa]=10 ng/mL). Ten μL of assay medium was added to unstimulated control wells. Cells were incubated at 37° C. and 5% CO2 for 5-6 hours. After treatment, cells were lysed and the luciferase assay was performed using ONE-Step luciferase assay system: add 100 μL of One-Step Luciferase reagent per well and rock at room temperature for ˜30 minutes. Luminescence was measured using a luminometer (BioTek Synergy™ 2 microplate reader).

[1] = Homo sapiens, TNFa 10 ng/mL, curve fit with top and bottom locked, read-out: IC50 Lock top and bottom of curve
[2] = Homo sapiens, overnight compound, TNFa 10 ng/mL 5-6 hours, luciferase, read-out: IC50 against NF-kB reporter activity
[3] = TNFa 10 ng/mL, curve fit with top and bottom locked, read-out: IC50 Lock top and bottom of curve
[4] = overnight compound, TNFa 10 ng/mL 5-6 hours, luciferase, read-out: IC50 against NF-kB reporter activity

SMILES | inhibition at 10 µM (Homo sapiens, TNFa 10 ng/mL) [%] | IC50 [1] [nM] | IC50 [2] [nM] | Percent Inhibition at 10 uM (TNFa 10 ng/mL) [%] | IC50 [3] [nM] | IC50 [4] [nM] | downregulation of NF-κB signaling in a luciferase assay (cellular data, compounds ran in parallel)
Cc1noc2c1-c1ccccc1C(c1ccc(Cl)cc1)=N[C@H]2CC(N)=O [CPI-0610] | 78 | 540 | 270 |  |  |  | 
Cc1cnc(Nc2ccc(OCCN3CCCC3)cc2)nc1Nc1cccc(S(=O)(=O)NC(C)(C)C)c1 [Fedratinib (TG101348)] |  |  |  | 99 | 2900 | 6100 | 
O=C(c1ccc(Nc2nccc(-c3cc4ccccc4s3)n2)cc1)N1CCC(N2CCCC2)CC1 [IKK-16 dihydrochloride] |  |  |  | 88 | 260 | 330 | 
N#CCNC(=O)c1ccc(-c2ccnc(Nc3ccc(N4CCOCC4)cc3)n2)cc1 [MMB/Momelotinib, N-(cyanomethyl)-4-(2-(4-morpholinophenylamino)pyrimidin-4-yl)benzamide] | 100 | 430 | 470 |  |  |  | downregulates NF-κB signaling
C1=C/COCc2cc(ccc2OCCN2CCCC2)Nc2nccc(n2)-c2cccc(c2)COC/1 [Pacritinib (SB1518)] | 100 | 1200 | 1400 |  |  |  | 
N#CC[C@H](C1CCCC1)n1cc(-c2ncnc3[nH]ccc23)cn1 [Ruxolitinib (INCB018424)] | -11 |  |  |  |  |  | 
